Here are results for one compound from patent publication EP4005557A1, “METHOD FOR PREPARING NANOSYSTEMS” (Université de Genève, priority 2020, dated 2022).

A short description of series [1]: Contact angle measurement on a solid surface by sessile drop technique (wetting properties). The series is classed as physicochemical. Particulars: Table 3, voriconazole series. On the procedure:
The contact angles of voriconazole alone, glucose, voriconazole micelle formulation and voriconazole liposome formulation on a solid surface were measured by sessile drop technique using Lorentzen and […], type 28 optical tensiometer. The purpose of measuring the contact angle is to determine the wetting properties of the formulation. Higher contact angles correspond to poor wetting whereas lower contact angle correspond to good wetting properties. Micelles and liposomes of itraconazole have been prepared according to the method described in example 1. The contact angles of itraconazole alone, glucose, itraconazole micelle formulation and itraconazole liposome formulation on a solid surface were measured by sessile drop technique using Lorentzen and […], type 28 optical tensiometer.

For series [2] the following is noted: drug alone; no method described; cited from earlier work.

As a reminder, the Log P is the decadic logarithm of the partition coefficient of the neutral form, usually between octanol and water.

In series [1], `C[C@@H](c1ncncc1F)[C@](O)(Cn1cncn1)c1ccc(F)cc1F` [Voriconazole] had a Contact angle of 68.2°. In addition, the “Log P” value in series [2] is reported as 1.75.
